Data reported in publication PMC6470533, “Structure–Activity Study, Characterization, and Mechanism of Action of an Antimicrobial Peptoid D2 and Its D- and L-Peptide Analogues” (Molecules, 2019).
Values after ≈ are worked out from the molar mass of the structure shown. Non-standard residues stand in square brackets, D forms with d. Residues, ends and D or L forms follow the SMILES beside them. N(1-naphthylmethyl)Gly = O=C(O)CNCc1cccc2ccccc12; d1Nal = N[C@H](Cc1cccc2ccccc12)C(=O)O; N(4-MeBn)Gly = Cc1ccc(CNCC(=O)O)cc1; Gly(N-CH2CH2OH) = O=C(O)CNCCO; dNle = CCCC[C@@H](N)C(=O)O; NBuGly = CCCCNCC(=O)O; Nlys = NCCCCNCC(=O)O; Sar = CNCC(=O)O

Assays:
[1] = test system: Methicillin resistant Staphylococcus pseudintermedius, (C22963); format: cell-based; conditions: 18 h
[2] = test system: Methicillin sensitive Staphylococcus pseudintermedius (26916); format: cell-based; conditions: 18 h
[3] = test system: Staphylococcus aureus (ATCC 29213); format: cell-based; conditions: ATCC 29213, 18 h
[4] = test system: red blood cell (RBC); conditions: 0.5% RBC suspension in PBS, 1 h, 37 °C, read at 414 nm, normalized to mellitin and PBS, triplicates
Description: Briefly, 75 µL of peptide in PBS was mixed with 75 µL of a 0.5% red blood cell (RBC) suspension in PBS, and incubated for 1 h at 37 °C. The hemoglobin release was then measured at 414 nm and normalized, using mellitin as positive control and PBS as negative control. Experiments were done in triplicates.

[5] = test system: Pseudomonas aeruginosa (ATCC 27853); format: cell-based; conditions: ATCC 27853, 18 h
Description: To explore the antimicrobial activity of the library of peptides and peptidomimetics, they were tested against Acinetobacter baumannii, Corynebacterium auriscanis, Escherichia coli, Enterococcus faecalis, Enterococcus faecium, Klebsiella pneumonia, Proteus mirabilis, and Pseudomonas aeruginosa. Bacteria grown on agar plates for 18 h at 37 °C were diluted to ~1 × 10^8 CFU/mL in Mueller–Hinton broth (MHB). Two-fold serial dilutions of peptides and peptidomimetics in MHB II were inoculated with bacteria to achieve a final concentration of 5 × 10^5 CFU/mL in polypropylene 96 U-well microtiter plates (Almeco, Esbjerg, Denmark), followed by incubation at 37 °C in ambient air for 18 h. The MIC values were determined as the lowest concentration showing no visible bacterial growth. Experiments were performed twice (in technical triplicates) on two different days.

Structure (SMILES) | MIC MRSP [1] [µg/mL] | MIC MSSP [2] [µg/mL] | MIC SA [3] [µg/mL] | HA, percentage of hemolysis at 150 µM [4] [%] | MIC PA [5] [µg/mL]
CCCCN(CC(N)=O)C(=O)CN(CCCCN)C(=O)CN(Cc1cccc2ccccc12)C(=O)CN(CCCCN)C(=O)CN(Cc1ccc(C)cc1)C(=O)CN(Cc1cccc2ccccc12)C(=O)CN(CCCCN)C(=O)CN [compound 1] (H-G[Nlys][N(1-naphthylmethyl)Gly][N(4-MeBn)Gly][Nlys][N(1-naphthylmethyl)Gly][Nlys][NBuGly]-NH2; N-terminus assumed) | 4 (≈ 3.55 µM) | 4 (≈ 3.55 µM) | 16 (≈ 14.2 µM) | 42 | 32 (≈ 28.4 µM)
CCCCN(CC(N)=O)C(=O)CN(CCCCN)C(=O)CN(Cc1cccc2ccccc12)C(=O)CN(CCCCN)C(=O)CN(Cc1ccc(C)cc1)C(=O)CN(Cc1cccc2ccccc12)C(=O)CNC(=O)CNCCCCN [compound 2] (H-[Nlys]G[N(1-naphthylmethyl)Gly][N(4-MeBn)Gly][Nlys][N(1-naphthylmethyl)Gly][Nlys][NBuGly]-NH2; N-terminus assumed) | 8 (≈ 7.1 µM) | 16 (≈ 14.2 µM) | 16 (≈ 14.2 µM) | 48 | 64 (≈ 56.8 µM)
CCCCN(CC(N)=O)C(=O)CN(CCCCN)C(=O)CN(Cc1cccc2ccccc12)C(=O)CN(CCCCN)C(=O)CN(Cc1ccc(C)cc1)C(=O)CNC(=O)CN(CCCCN)C(=O)CNCCCCN [compound 3] (H-[Nlys][Nlys]G[N(4-MeBn)Gly][Nlys][N(1-naphthylmethyl)Gly][Nlys][NBuGly]-NH2; N-terminus assumed) | 64 (≈ 60.5 µM) | 64 (≈ 60.5 µM) | >64 | 56 | >64
CCCCN(CC(N)=O)C(=O)CN(CCCCN)C(=O)CN(Cc1cccc2ccccc12)C(=O)CN(CCCCN)C(=O)CNC(=O)CN(Cc1cccc2ccccc12)C(=O)CN(CCCCN)C(=O)CNCCCCN [compound 4] (H-[Nlys][Nlys][N(1-naphthylmethyl)Gly]G[Nlys][N(1-naphthylmethyl)Gly][Nlys][NBuGly]-NH2; N-terminus assumed) | 32 (≈ 29.2 µM) | 64 (≈ 58.5 µM) | >64 | 40 | >64
CCCCN(CC(N)=O)C(=O)CN(CCCCN)C(=O)CN(Cc1cccc2ccccc12)C(=O)CNC(=O)CN(Cc1ccc(C)cc1)C(=O)CN(Cc1cccc2ccccc12)C(=O)CN(CCCCN)C(=O)CNCCCCN [compound 5] (H-[Nlys][Nlys][N(1-naphthylmethyl)Gly][N(4-MeBn)Gly]G[N(1-naphthylmethyl)Gly][Nlys][NBuGly]-NH2; N-terminus assumed) | 4 (≈ 3.55 µM) | 4 (≈ 3.55 µM) | 32 (≈ 28.4 µM) | 25 | 16 (≈ 14.2 µM)
CCCCN(CC(N)=O)C(=O)CN(CCCCN)C(=O)CNC(=O)CN(CCCCN)C(=O)CN(Cc1ccc(C)cc1)C(=O)CN(Cc1cccc2ccccc12)C(=O)CN(CCCCN)C(=O)CNCCCCN [compound 6] (H-[Nlys][Nlys][N(1-naphthylmethyl)Gly][N(4-MeBn)Gly][Nlys]G[Nlys][NBuGly]-NH2; N-terminus assumed) | >64 | >64 | >64 | 6 | >64
CCCCN(CC(N)=O)C(=O)CNC(=O)CN(Cc1cccc2ccccc12)C(=O)CN(CCCCN)C(=O)CN(Cc1ccc(C)cc1)C(=O)CN(Cc1cccc2ccccc12)C(=O)CN(CCCCN)C(=O)CNCCCCN [compound 7] (H-[Nlys][Nlys][N(1-naphthylmethyl)Gly][N(4-MeBn)Gly][Nlys][N(1-naphthylmethyl)Gly]G[NBuGly]-NH2; N-terminus assumed) | 4 (≈ 3.55 µM) | 8 (≈ 7.1 µM) | 16 (≈ 14.2 µM) | 85 | 16 (≈ 14.2 µM)
Cc1ccc(CN(CC(=O)N(CCCCN)CC(=O)N(CC(=O)N(CCCCN)CC(=O)NCC(N)=O)Cc2cccc3ccccc23)C(=O)CN(Cc2cccc3ccccc23)C(=O)CN(CCCCN)C(=O)CNCCCCN)cc1 [compound 8] (H-[Nlys][Nlys][N(1-naphthylmethyl)Gly][N(4-MeBn)Gly][Nlys][N(1-naphthylmethyl)Gly][Nlys]G-NH2; N-terminus assumed) | 8 (≈ 7 µM) | 8 (≈ 7 µM) | 32 (≈ 28 µM) | 49 | 32 to 64
CCCCN(CC(N)=O)C(=O)CN(CCCCN)C(=O)CN(Cc1cccc2ccccc12)C(=O)CN(C)C(=O)CN(Cc1ccc(C)cc1)C(=O)CN(Cc1cccc2ccccc12)C(=O)CN(CCCCN)C(=O)CNCCCCN [compound 9] (H-[Nlys][Nlys][N(1-naphthylmethyl)Gly][N(4-MeBn)Gly][Sar][N(1-naphthylmethyl)Gly][Nlys][NBuGly]-NH2; N-terminus assumed) | 4 (≈ 3.5 µM) | 4 (≈ 3.5 µM) | 16 (≈ 14 µM) | 16 | 32 (≈ 28 µM)
CCCCN(CC(N)=O)C(=O)CN(CCCCN)C(=O)CN(Cc1cccc2ccccc12)C(=O)CN(Cc1ccc(C)cc1)C(=O)CN(Cc1ccc(C)cc1)C(=O)CN(Cc1cccc2ccccc12)C(=O)CN(CCCCN)C(=O)CNCCCCN [compound 10] (H-[Nlys][Nlys][N(1-naphthylmethyl)Gly][N(4-MeBn)Gly][N(4-MeBn)Gly][N(1-naphthylmethyl)Gly][Nlys][NBuGly]-NH2; N-terminus assumed) | 8 (≈ 6.5 µM) | 8 (≈ 6.5 µM) | 8 (≈ 6.5 µM) | 69 | 16 (≈ 13 µM)
CCCCN(CC(N)=O)C(=O)CN(CCCCN)C(=O)CN(Cc1cccc2ccccc12)C(=O)CN(Cc1cccc2ccccc12)C(=O)CN(Cc1ccc(C)cc1)C(=O)CN(Cc1cccc2ccccc12)C(=O)CN(CCCCN)C(=O)CNCCCCN [compound 11] (H-[Nlys][Nlys][N(1-naphthylmethyl)Gly][N(4-MeBn)Gly][N(1-naphthylmethyl)Gly][N(1-naphthylmethyl)Gly][Nlys][NBuGly]-NH2; N-terminus assumed) | 8 (≈ 6.31 µM) | 8 (≈ 6.31 µM) | 8 (≈ 6.31 µM) | 87 | 16 (≈ 12.6 µM)
CCCCN(CC(N)=O)C(=O)CN(CCCCN)C(=O)CN(Cc1cccc2ccccc12)C(=O)CN(CCO)C(=O)CN(Cc1ccc(C)cc1)C(=O)CN(Cc1cccc2ccccc12)C(=O)CN(CCCCN)C(=O)CNCCCCN [compound 12] (H-[Nlys][Nlys][N(1-naphthylmethyl)Gly][N(4-MeBn)Gly][Gly(N-CH2CH2OH)][N(1-naphthylmethyl)Gly][Nlys][NBuGly]-NH2; N-terminus assumed) | 8 (≈ 6.83 µM) | 8 (≈ 6.83 µM) | 32 (≈ 27.3 µM) | 5 | >64
CCCC[C@@H](NC(=O)[C@@H](CCCCN)NC(=O)[C@@H](Cc1cccc2ccccc12)NC(=O)[C@@H](CCCCN)NC(=O)CN(Cc1ccc(C)cc1)C(=O)CN(Cc1cccc2ccccc12)C(=O)CN(CCCCN)C(=O)CNCCCCN)C(N)=O [compound 13] (H-[Nlys][Nlys][N(1-naphthylmethyl)Gly][N(4-MeBn)Gly][dK][d1Nal][dK][dNle]-NH2; N-terminus assumed) | 4 (≈ 3.34 µM) | 4 (≈ 3.34 µM) | 8 (≈ 6.67 µM) | 34 | 8 (≈ 6.67 µM)
CCCCN(CC(N)=O)C(=O)CN(CCCCN)C(=O)CN(Cc1cccc2ccccc12)C(=O)CN(CCCCN)C(=O)[C@@H](Cc1ccccc1)NC(=O)[C@@H](Cc1cccc2ccccc12)NC(=O)[C@@H](CCCCN)NC(=O)[C@H](N)CCCCN [compound 14] (H-[dK][dK][d1Nal][dF][Nlys][N(1-naphthylmethyl)Gly][Nlys][NBuGly]-NH2; N-terminus assumed) | 4 (≈ 3.38 µM) | 4 (≈ 3.38 µM) | 16 (≈ 13.5 µM) |  | 64 (≈ 54 µM)
CCCC[C@@H](NC(=O)CN(CCCCN)C(=O)[C@@H](Cc1cccc2ccccc12)NC(=O)CN(CCCCN)C(=O)[C@@H](Cc1ccccc1)NC(=O)[C@@H](Cc1cccc2ccccc12)NC(=O)CN(CCCCN)C(=O)CNCCCCN)C(N)=O [compound 15] (H-[Nlys][Nlys][d1Nal][dF][Nlys][d1Nal][Nlys][dNle]-NH2; N-terminus assumed) | 4 (≈ 3.38 µM) | 4 (≈ 3.38 µM) | 32 (≈ 27 µM) |  | >64
CCCCN(CC(N)=O)C(=O)[C@@H](CCCCN)NC(=O)CN(Cc1cccc2ccccc12)C(=O)[C@@H](CCCCN)NC(=O)CN(Cc1ccc(C)cc1)C(=O)CN(Cc1cccc2ccccc12)C(=O)[C@@H](CCCCN)NC(=O)[C@H](N)CCCCN [compound 16] (H-[dK][dK][N(1-naphthylmethyl)Gly][N(4-MeBn)Gly][dK][N(1-naphthylmethyl)Gly][dK][NBuGly]-NH2; N-terminus assumed) | 4 (≈ 3.34 µM) | 4 (≈ 3.34 µM) | 16 (≈ 13.3 µM) |  | 64 (≈ 53.4 µM)
